The test system of test [1] is Mycobacterium tuberculosis. The experiment in a line: Antimicrobial activity against Mycobacterium tuberculosis IMCJ946.K2. The test is classed as functional.
The next test concerns A549. The experiment in a line: Cytotoxicity against human A549 cell line. The test is classed as functional, cell-based.
A further test concerns MCF7. The experiment in a line: Cytotoxicity against human MCF7 cell line. The test is classed as functional, cell-based.
In test [2] the test system is Mycobacterium tuberculosis. Briefly: Antimicrobial activity against Mycobacterium tuberculosis H37Rv. The test is classed as functional.
For test [3], the target named is T1, Cell division protein FtsZ (Mycobacterium tuberculosis) (UniProt P9WN95).
T1 sequence (whole entry): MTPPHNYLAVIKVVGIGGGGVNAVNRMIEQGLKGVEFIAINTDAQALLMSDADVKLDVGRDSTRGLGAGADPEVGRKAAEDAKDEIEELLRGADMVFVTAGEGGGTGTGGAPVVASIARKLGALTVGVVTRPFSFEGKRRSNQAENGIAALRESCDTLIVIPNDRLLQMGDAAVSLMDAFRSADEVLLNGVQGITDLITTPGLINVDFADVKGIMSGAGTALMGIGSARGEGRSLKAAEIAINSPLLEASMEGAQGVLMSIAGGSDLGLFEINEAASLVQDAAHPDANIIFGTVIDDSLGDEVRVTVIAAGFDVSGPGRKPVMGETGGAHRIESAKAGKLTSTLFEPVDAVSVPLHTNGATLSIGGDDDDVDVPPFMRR
Briefly: FtsZ inactivation in MTB cells at MIC. The test is classed as cell-based.

Converted amounts (≈) assume the structure as drawn. The source made the active and inactive calls. The rule behind the calls is not given here.

Usually MIC99 stands for an inhibitory concentration at the 99% level, which refers to growth in some studies and to a panel of isolates in others. As a reminder, the IC50 is the midpoint of a concentration-inhibition curve. Lower therefore signals inhibition by little substance.

As to `CC(=O)O[C@@]12CO[C@@H]1C[C@H](O)[C@@]1(C)C(=O)[C@H](OC(=O)CN(C)C)C3=C(C)[C@@H](OC(=O)/C=C/c4ccc5ccccc5c4)C[C@@](O)([C@@H](OC(=O)c4ccccc4)[C@H]21)C3(C)C`, the MIC99 in test [1] and in test [2] was 10 µM (≈ 8.1 µg/mL) each time. Further, the IC50 with A549 is 10.8 µM; in the test with MCF7, 7 µM.

Turning to `CC(=O)O[C@@]12CO[C@@H]1C[C@H](O)[C@@]1(C)C(=O)[C@H](OC(=O)N(C)C)C3=C(C)[C@@H](OC(=O)/C=C/c4ccc5ccccc5c4)C[C@@](O)([C@@H](OC(=O)c4ccccc4)[C@H]21)C3(C)C`, the result in test [3] was Active.

Regarding `CC(=O)O[C@@]1([C@@H]2/C(C)=C(/O)C(=O)C3=C(C)[C@@H](OC(=O)/C=C/c4ccc5ccccc5c4)C[C@@](O)([C@H]2OC(=O)c2ccccc2)C3(C)C)CO[C@@H]1CCO`, the MIC99 in test [1] was determined as 1.25 µM (≈ 0.906 µg/mL); in test [2] it was 2.5 µM (≈ 1.81 µg/mL). Moreover, the concentration for half-maximal inhibition (IC50) in the test on A549 and with MCF7 was greater than 80 µM each time. For the same compound, the outcome in test [3] was Active.

On to `COc1ccc2cc(/C=C/C(=O)O[C@H]3C[C@@]4(O)[C@@H](OC(=O)c5ccccc5)[C@@H]5[C@]6(OC(C)=O)CO[C@@H]6C[C@H](O)[C@@]5(C)C(=O)[C@H](O)C(=C3C)C4(C)C)ccc2c1`, for which the MIC99 in test [1] and in test [2] was 5 µM (≈ 3.77 µg/mL) throughout. Moreover, the concentration for half-maximal inhibition (IC50) in the test on A549 stood at 5 µM; with MCF7, 5.3 µM.

`CCN(CC)CCC(=O)O[C@H]1C[C@H]2OC[C@@]2(OC(C)=O)[C@H]2[C@H](OC(=O)c3ccccc3)[C@]3(O)C[C@H](OC(=O)/C=C/c4ccc5ccccc5c4)C(C)=C([C@@H](OC(C)=O)C(=O)[C@]12C)C3(C)C`: the figures for the MIC99 in test [1] and in test [2] were 20 µM (≈ 17.9 µg/mL) and 10 µM (≈ 8.94 µg/mL), respectively. Also, the half-inhibitory concentration (IC50) in the test on A549 came out at 17 µM; with MCF7, 9.4 µM.

For the compound `CCCCCC(=O)O[C@H]1C(=O)[C@@]2(C)[C@H]([C@H](OC(=O)c3ccccc3)[C@]3(O)C[C@H](OC(=O)[C@H](O)[C@@H](NC(=O)c4ccccc4)c4ccccc4)C(C)=C1C3(C)C)[C@]1(OC(C)=O)CO[C@@H]1C[C@@H]2O`, the figures for the MIC99 in test [1] and in test [2] were 1.25 µM (≈ 1.14 µg/mL) and 5 µM (≈ 4.55 µg/mL), respectively. Further, the IC50 with A549 and with MCF7 was 0.65 µM in each case.

For the compound `CC(=O)O[C@@]1([C@@H]2/C(C)=C(/O)C(=O)C3=C(C)[C@@H](OC(=O)/C=C/c4ccc(Sc5ccccc5)cc4)C[C@@](O)([C@H]2OC(=O)c2ccccc2)C3(C)C)CO[C@@H]1CCO`, the MIC99 in test [1] turned out to be 1.25 µM (≈ 0.979 µg/mL); in test [2] it was 2.5 µM (≈ 1.96 µg/mL). The IC50 in the test on A549 and in the test on MCF7 was greater than 80 µM in each case.

With `CC(=O)O[C@@]12CO[C@@H]1C[C@H](O)[C@@]1(C)C(=O)[C@H](O)C3=C(C)[C@@H](OC(=O)/C=C/c4ccc(Sc5ccccc5)cc4)C[C@@](O)([C@@H](OC(=O)c4ccccc4)[C@H]21)C3(C)C`, the MIC99 in test [1] and in test [2] was 2.5 µM (≈ 1.96 µg/mL) in each case. For the same compound, the concentration for half-maximal inhibition (IC50) with A549 was found to be 4.5 µM; in the test on MCF7, 3.4 µM.

On to `CC(=O)O[C@H]1C(=O)[C@@]2(C)[C@H]([C@H](OC(=O)c3ccccc3)[C@]3(O)C[C@H](OC(=O)[C@H](O)[C@@H](NC(=O)c4ccccc4)c4ccccc4)C(C)=C1C3(C)C)[C@]1(OC(C)=O)CO[C@@H]1C[C@@H]2O` [PACLITAXEL], for which the MIC99 in test [1] and in test [2] was 40 µM (≈ 34.2 µg/mL) in each case. Also, the concentration for half-maximal inhibition (IC50) was determined as 0.028 µM with A549 and 0.019 µM with MCF7.

Take `COc1ccc2cc(/C=C/C(=O)O[C@H]3C[C@@]4(O)[C@@H](OC(=O)c5ccccc5)[C@H]([C@]5(OC(C)=O)CO[C@@H]5CCO)/C(C)=C(/O)C(=O)C(=C3C)C4(C)C)ccc2c1`: the MIC99 in test [1] and in test [2] was 2.5 µM (≈ 1.89 µg/mL) each time. The IC50 with A549 and with MCF7 was greater than 80 µM in each case.

On to `CC(=O)O[C@@]1([C@@H]2/C(C)=C(/O)C(=O)C3=C(C)[C@@H](OC(=O)/C=C/c4ccc(Oc5ccccc5)cc4)C[C@@](O)([C@H]2OC(=O)c2ccccc2)C3(C)C)CO[C@@H]1CCO`, for which the MIC99 came to 1.25 µM (≈ 0.959 µg/mL) in test [1] and 2.5 µM (≈ 1.92 µg/mL) in test [2]. Further, the IC50 with A549 and with MCF7 was greater than 80 µM throughout.

In the case of `CC(=O)O[C@@]12CO[C@@H]1C[C@H](O)[C@@]1(C)C(=O)[C@H](OC(=O)/C=C/c3ccc4ccccc4c3)C3=C(C)[C@@H](O)C[C@@](O)([C@@H](OC(=O)c4ccccc4)[C@H]21)C3(C)C`, the MIC99 in test [1] turned out to be 10 µM (≈ 7.25 µg/mL); in test [2], 20 µM (≈ 14.5 µg/mL). The same compound returned a concentration for half-maximal inhibition (IC50) with MCF7 of 14 µM.

On to `CC(=O)O[C@@]12CO[C@@H]1C[C@H](O)[C@@]1(C)C(=O)[C@H](O)C3=C(C)[C@@H](OC(=O)/C=C/c4cccc5ccccc45)C[C@@](O)([C@@H](OC(=O)c4ccccc4)[C@H]21)C3(C)C`, for which the MIC99 in test [1] and in test [2] was 5 µM (≈ 3.62 µg/mL) each time. Further, the values for the IC50 in the test with A549 and in the test with MCF7 were 80 µM and 5.4 µM, respectively.

With `CCN(CC)CCC(=O)O[C@H]1C(=O)[C@@]2(C)[C@H]([C@H](OC(=O)c3ccccc3)[C@]3(O)C[C@H](OC(=O)/C=C/c4ccc5ccccc5c4)C(C)=C1C3(C)C)[C@]1(OC(C)=O)CO[C@@H]1C[C@@H]2O`, the MIC99 in test [1] turned out to be 5 µM (≈ 4.26 µg/mL); in test [2] it was 10 µM (≈ 8.52 µg/mL). In addition, the IC50 in the test on A549 worked out at 9.6 µM; with MCF7, 3.9 µM.

For `COc1ccc(C(=O)O[C@H]2[C@@H]3[C@]4(OC(C)=O)CO[C@@H]4C[C@H](O)[C@@]3(C)C(=O)[C@H](O)C3=C(C)[C@@H](OC(=O)/C=C/c4ccc5ccccc5c4)C[C@]2(O)C3(C)C)cc1`, the MIC99 in test [1] amounted to 2.5 µM (≈ 1.89 µg/mL); in test [2], 5 µM (≈ 3.77 µg/mL). Also, the IC50 with A549 is 14 µM; with MCF7 it was 7.6 µM.

On to `CC(=O)O[C@@]12CO[C@@H]1C[C@H](OC(=O)CN(C)C)[C@@]1(C)C(=O)[C@H](O)C3=C(C)[C@@H](OC(=O)/C=C/c4ccc5ccccc5c4)C[C@@](O)([C@@H](OC(=O)c4ccccc4)[C@H]21)C3(C)C`, for which the MIC99 stood at 5 µM (≈ 4.05 µg/mL) in test [1] and 20 µM (≈ 16.2 µg/mL) in test [2]. Also, the half-inhibitory concentration (IC50) in the test with A549 is 4.3 µM; in the test on MCF7, greater than 20 µM.

Regarding `CC(=O)O[C@@]12CO[C@@H]1C[C@H](O)[C@@]1(C)C(=O)[C@H](O)C3=C(C)[C@@H](OC(=O)/C=C/c4ccc5ccccc5c4)C[C@@](O)([C@@H](OC(=O)c4ccccc4)[C@H]21)C3(C)C`, the MIC99 in test [1] was 2.5 µM (≈ 1.81 µg/mL); in test [2], 5 µM (≈ 3.62 µg/mL). The 50% inhibitory concentration (IC50) in the test on A549 is 15.7 µM; in the test with MCF7, 4.5 µM.

With `CC(=O)O[C@@]12CO[C@@H]1C[C@H](O)[C@@]1(C)C(=O)[C@H](O)C3=C(C)[C@@H](OC(=O)/C=C/c4ccc(Oc5ccccc5)cc4)C[C@@](O)([C@@H](OC(=O)c4ccccc4)[C@H]21)C3(C)C`, the MIC99 in test [1] and in test [2] was 10 µM (≈ 7.67 µg/mL) each time. Further, the 50% inhibitory concentration (IC50) came out at 12.5 µM with A549 and 9.3 µM in the test with MCF7.

Source of the values: ChEMBL document CHEMBL1147745, “Targeting FtsZ for antituberculosis drug discovery: noncytotoxic taxanes as novel antituberculosis agents” (J Med Chem, 2006).
